Molecular target: T1, Kallikrein (Homo sapiens, UniProt P03952)
T1 construct: purchased American diagnostic
Assay: Determination of IC50 for various proteases: kallikrein
Type: biochemical
Details: kallikrein 2 nM, substrate S-2288 0.5 mM; Mean ± SD
Method: A 6 mM solution of the test compound in DMSO was prepared. In a V-bottom micro plate the 6 mM compound solution was diluted 6 times in DMSO to obtain a concentration row with the following concentrations: 6 mM, 1.8 mM, 540 μM, 162 μM, 48.8 μM, 14.4 μM, and 4 μM. From this DMSO master plate 1:20 dilutions in 10 mM MOPS pH 8.3 were prepared to obtain solutions of 300, 90, 27, 8.1, 2.44, 0.72 and 0.22 μM in MOPS buffer and 5% DMSO.
100 μl of this solution were pipetted into a flat bottom 96 well microplate and placed into a Tecan infinite 200 plate reader. Before measurement, 50 μl of protease solution and, subsequently 50 μl substrate solution were added by the machine. The liberation of free para nitroanilide was detected at 405 nm. The protease solution was freshly prepared by diluting to the desired concentration from a stock solution in 60 mM MOPS; 600 mM NaCl; 20 mM CaCl2; 10% DMSO; 0.4% PEG 6000 pH 8.3. The substrate solution was prepared by dissolving the solid substrate in an adequate amount of water to get the desired concentrations. The used protease and substrate solutions are given below:
All enzymes except trypsin were from human origin (American diagnostic). Trypsin was hog trypsin (Sigma Aldrich). Substrates were purchased from Chromogenix. […]

T1 sequence (P03952 391-638 limits assumed): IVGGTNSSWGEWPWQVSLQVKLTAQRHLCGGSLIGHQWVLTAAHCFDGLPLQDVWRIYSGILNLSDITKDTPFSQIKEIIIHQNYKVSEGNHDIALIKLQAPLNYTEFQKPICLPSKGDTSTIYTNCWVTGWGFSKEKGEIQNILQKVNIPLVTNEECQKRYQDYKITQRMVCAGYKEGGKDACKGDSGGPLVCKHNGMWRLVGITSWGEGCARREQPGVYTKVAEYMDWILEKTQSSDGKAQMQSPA
T1 sequence (P03952 20-390 limits assumed): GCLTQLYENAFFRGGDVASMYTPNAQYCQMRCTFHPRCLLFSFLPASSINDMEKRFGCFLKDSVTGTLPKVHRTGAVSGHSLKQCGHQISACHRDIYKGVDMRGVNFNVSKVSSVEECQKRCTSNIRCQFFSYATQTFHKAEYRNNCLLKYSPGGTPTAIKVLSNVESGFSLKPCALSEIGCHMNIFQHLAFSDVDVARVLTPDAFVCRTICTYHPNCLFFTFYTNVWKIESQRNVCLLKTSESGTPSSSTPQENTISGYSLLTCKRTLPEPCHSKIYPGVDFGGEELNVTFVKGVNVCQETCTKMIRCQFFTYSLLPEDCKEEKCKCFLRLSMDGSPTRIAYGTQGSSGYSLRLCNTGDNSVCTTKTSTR

`O=C(Nc1ccc(C(=O)Nc2ccc(Cl)cc2)c(O)c1)c1ccc(-c2nc3cc(Cl)c(Cl)cc3[nH]2)cc1` [Example 1, N-(4-Chlorophenyl)-4-(4-(5,6-dichloro-1H-benzo[d]imidazol-2-yl)benzamido)-2-hydroxybenzamide] was tested, and the IC50 was > 150 µM.
